How the values were obtained:
PC12 cells = assay: PC12 cell serum withdrawal model (MTS assay); assay type: cell-based; conditions: control cells = 100%
Excerpt: Serum withdrawal is a cytotoxic environmental challenge that results in cell death in cultured cell lines as well as in primary cells of various tissue origins, including nerve cells. In particular, pheochromocytoma (PC) 12 cells have been widely employed as an in vitro neuronal cell model for a wide variety of neurodegenerative and cell death related disorders (Muriel, et al, Mitochondrial free calcium levels (Rhod-2 fluorescence) and ultrastructural alterations in neuronally differentiated PC12 cells during ceramide-dependent cell death, J. Comp. Neurol., 2000, 426(2), 297-315; Dermitzaki, et al, Opioids transiently prevent activation of apoptotic mechanisms following short periods of serum withdrawal, J. Neurochem., 2000, 74(3), 960-969; Carlile, et al, Reduced apoptosis after nerve growth factor and serum withdrawal: conversion of tetrameric glyceraldehyde-3-phosphate dehydrogenase to a dimer, Mol. Pharmacol., 2000, 57(1), 2-12).
PC12 cells were cultured in sterile media (RPMI 1640) supplemented with 10% heat-inactivated horse serum and 5% fetal bovine serum (FBS). The culture medium also contained Penicillin-Streptomycin-Neomycin antibiotic (50µg, 50µg, 100µg, respectively). Medium was exchanged every other day and the cells were passed in log phase near confluence.
The control cells were cultured in regular media without any treatment. An enantiomer of Formula 7 or Formula 8 (10µM) was mixed well in the medium and then applied to the cells. For the 2 day assay, an enantiomer of Formula 7 or Formula 8 (10µM) was only applied to the cells once at the time of serum withdrawal. For the 7 day assay, an enantiomer of Formula 7 or Formula 8 (10. mu.M) was applied to the cells at the time of serum withdrawal and every 48 hr thereafter when cells were changed with fresh new serum-free medium. In the serum withdrawal group, the cells were cultured in serum-free medium with no additional enantiomer of Formula 7 or Formula 8. Cell survival was determined by the 3-(4,5-dimethylthiazol-2-yl)-5-(3-carboxy-methoxyphenyl)-2-(4-sulfophenyl)-2H-tetrazolium inner salt (MTS) assay at 2 or 7 days after serum withdrawal.
At the end of the experiment, cells were washed with fresh medium and incubated with MTS solution in a humidified 37° C. with 5% CO2 incubator for 1.5 hr. After the incubation period, the cells were immediately analyzed using a Softmax program (Molecular Devices). […] The assay is based on the cellular conversion of the tetrazolium salt, MTS, into a formazan that is soluble in tissue culture medium and measured directly at 490 nm in 96-well assay plates. The absorbance is directly proportional to the number of living cells in culture. The arbitrary absorbance reading in control cells is expressed as 100% survival rate.

Li-pilo induced SE = assay: Lithium-pilocarpine model of temporal lobe epilepsy (Example 1): mortality and spontaneous recurrent seizures; assay type: in vivo, rat
Excerpt: The model induced in rats by pilocarpine associated with lithium (Li-Pilo) reproduces most of the clinical and neurophysiological features of human temporal lobe epilepsy (Turski et al., 1989, Synapse 3:154-171; Cavalheiro, 1995, Ital J Neurol Sci 16:33-37). In adult rats, the systemic administration of pilocarpine leads to status epilepticus (SE). The lethality rate reaches 30-50% during the first days. In the surviving animals, neuronal damage predominates within the hippocampal formation, the piriform and entorhinal cortices, thalamus, amygdaloid complex, neocortex and substantia nigra.
Male Wistar rats weighing 225-250 g, provided by Janvier Breeding Center (Le Genest-St-lste, France) were housed under controlled standard conditions (light/dark cycle, 7.00 a.m.-7.00 p.m. lights on), with food and water available ad libitum. All animal experimentation was performed in accordance with the rules of the European Communities Council Directive of Nov. 24, 1986 (86/609/EEC), and the French Department of Agriculture (License No 67-97). For electrode implantation, rats were anesthetized by an i.p. injection of 2.5 mg/kg diazepam (DZP, Valium, Roche, France) and […] ketamine chlorhydrate (Imalgene 1000, Rhone Merrieux, France). Four single-contact recording electrodes were placed on the skull, over the parietal cortex, two on each side.
All rats received lithium chloride (3 meq/kg, i.p., Sigma, St Louis, Mo., U.S.A.); about 20 h later, animals were placed into plexiglas boxes, in order to record baseline cortical EEG. Methylscopolamine bromide (1 mg/kg, s.c., Sigma) was administered to limit the peripheral effects of the convulsant. SE was induced by injecting pilocarpine hydrochloride (25 mg/kg, s.c., Sigma) 30 min after methyl-scopolamine. The bilateral EEG cortical activity was recorded during the whole duration of SE and behavioral changes were noted.
The effects of increasing doses of the test compound were studied on 3 groups of rats. The animals of the first group received 10 mg/kg of the test compound, i.p., 1 h after the onset of SE (pilo-test10) while the animals of groups 2 and 3 received 30 and 60 mg/kg of the test compound (pilo-test30 and pilo-test60), respectively.
Another group was injected with 2 mg/kg diazepam (DZP, i.m.) at 1 h after the onset of SE which are our standard treatment to improve animals survival after SE (pilo-DZP). The control group received saline instead of pilocarpine and the test compound (saline-saline). The pilo-test compound rats surviving SE were then injected about 10 h after the first test compound injection with a second i.p. injection of the same dose of the test compound and were maintained under a twice daily treatment with the test compound for 6 additional days. Pilo-DZP received a second injection of 1 mg/kg DZP on the day of SE at about 10 h after the first one. Thereafter, Pilo-DZP and saline-saline rats received twice daily an equivalent volume of saline.
The effects of the test compound on the EEG and on the latency to occurrence of SRS were investigated by daily video recording of the animals for 10 h per day and the recording of the electrographic activity twice a week for 8 h.
For the comparison of the characteristics of SE in pilo-saline and pilo-test compound animals, a non-paired Student's t-test was used. The comparison between the number of rats seizing in both groups was performed by means of a Chi square test. For neuronal damage, statistical analysis between groups was performed using ANOVA followed by a Fisher's test for multiple comparisons using the Statview software (Fisher R A, 1946a, Statistical Methods for Research Workers (10th edition) Oliver & Boyd, Edinburgh; Fisher R A, 1946b, The Design of Experiments (4th edition) Oliver & Boyd, Edinburgh) Behavioral and EEG characteristics of lithium-pitocarpine status epilepticus

Row | Compound | 2 Day Survival Rate (PC12 cells; 10 µM applied once at serum withdrawal) | 7 Day Survival Rate (PC12 cells; 10 µM at serum withdrawal and every 48 hr) | latency to SRS (Li-pilo induced SE; 10 mg/kg i.p., 7-day treatment, n=7) | frequency of stage III SRS (Li-pilo induced SE; 10 mg/kg, weeks 3 and 4) | latency to SRS (Li-pilo induced SE; 30 mg/kg i.p., 7-day treatment, n=10) | frequency of stage IV-V SRS (Li-pilo induced SE; 60 mg/kg group with early SRS onset, weeks 2-4) | delay without becoming epileptic post-SE (Li-pilo induced SE; 60 mg/kg, one rat) | mean delay to epilepsy relative to the other groups of animals (Li-pilo induced SE; 60 mg/kg, subgroup of animals) | latency to SRS (Li-pilo induced SE; 60 mg/kg, subgroup with latency similar to other groups, n=7) | latency to SRS (mean) (Li-pilo induced SE; 60 mg/kg, subgroup with much longer delay, n=4) | rats with delayed occurrence of spontaneous seizures (Li-pilo induced SE; 60 mg/kg, 4 out of 11) | frequency of stage IV-V SRS (Li-pilo induced SE; 10, 30 and 60 mg/kg (early SRS onset) groups, first week) | mortality during the first 48 h after SE (Li-pilo induced SE; test compound 10 mg/kg i.p. 1 h after SE onset) | mortality during the first 48 h after SE (Li-pilo induced SE; test compound 30 mg/kg i.p. 1 h after SE onset) | mortality during the first 48 h after SE (Li-pilo induced SE; test compound 60 mg/kg i.p. 1 h after SE onset) | mortality during the first 48 h after SE (Li-pilo induced SE; DZP 2 mg/kg i.m. 1 h after SE onset) | latency to SRS (Li-pilo induced SE; DZP 2 mg/kg i.m., n=9) | frequency of stage IV-V SRS (Li-pilo induced SE; DZP, first week)
1 | NC(=O)OC[C@@H](O)c1ccccc1Cl [test compound] | 69.4 ± 1.7^1% | 79.9 ± 4.0^2% | 15.4 ± 5.1 days | significantly increased over pilo-DZP values | 18.9 ± 9.0 days | 0.6-0.9 seizure per week | > 9 months | about 9 fold | 17.6 ± 8.7 days | 149.8 ± 36.0 days | 36% | 2.3-6.1 SRS per week | 26% | 20% | 4% |  |  | 
2 | CN1C(=O)CN=C(c2ccccc2)c2cc(Cl)ccc21 [DZP, diazepam, reference compound] |  |  |  |  |  |  |  |  |  |  |  |  |  |  |  | 23% | 18.2 ± 6.9 days | 11.3 SRS per week

Reference: patent US20080103198A1, “METHODS FOR TREATMENT OF COCHLEAR AND VESTIBULAR DISORDERS” (priority 2006, published 2008)
